One assay has as its target T7 RNA Polymerase (Escherichia phage T7, UniProt P00573). In words: Detection of the efficiency of mRNA capping synthesis (in vitro transcription, product yield). The format is biochemical. The conditions noted are these: 20 µL mRNA synthesis reaction system. The method, then: • 1) The plasmids were linearized and the DNA templates were purified. • 2) The mRNA was synthesized by in vitro transcription, using the capping structure prepared in the present disclosure, positive control CleanCap®AG (3'OMe) (Trilink, N-7413), negative control (uncapped mRNA) and blank control (DNase/RNase-Free water), respectively. Reaction system
The reaction was carried out at 37°C for 2 to 3 h. TURBO DNase digestion was carried out for 15 min. The mRNA was precipitated by LiCl for 30 min or more or overnight, and the mRNA precipitate was washed with 75% ethanol, dried briefly to evaporate the ethanol, and the mRNA was redissolved with RNase-Free water.
In the reaction system listed in Table 1, since the solubility of different test compounds varies in different solutions, adjustments can be made as needed. For ease of operation, the commonly used concentrations are 10 mM and 100 mM. […] If the initial concentration of the test compound is 10 mM, the dosage is 8 µL. Regardless of the initial concentration, the dosages of different test compounds were the same, and the final concentrations were also the same.
For example, when testing compounds S17 and S19, their initial concentration was 10 mM, and the addition volume was 8 µL. When testing compounds 5 and 6, their initial concentration was 100 mM, and the addition volume was 0.8 µL.
The assay was performed according to the method described in Example 20.

For another assay, the system named is HEK293T cells. In words: Expression efficiency of capped luciferase mRNAs in HEK293T cells. The format is cell-based. The conditions noted are these: 6 h after transfection of capped luciferase mRNA. As to the method: • 1) HNE293T cells were cultured in DMEM medium containing 10% FBS and penicillin/streptomycin at 37°C and 5% CO2. • 2) The cultured HEK293T cells were spread in a 96-well plate with 1.25 × 10^4 cells per well. • 3) After the cells completely adhered to the wall, 0.5 µg of a mixture of mRNA sample and Polyplus jet[…] was added to each well of cells, and cultured at 37°C and 5% CO2 for 6 h. • 4) The growth medium was removed from the cells to be tested and the cells were rinsed with PBS. After centrifugation to remove PBS, 50 µL of 1x lysis buffer was added thereto, and cells and all liquid were transferred to a microcentrifuge tube, and then centrifuged at 12000 x g at 4°C for 2 min. • 5) The supernatant was transferred to a new tube. Fluorescence readings were detected using the ONE-Glo Luciferase Assay System Kit.
All test compounds, N-7413, negative control and blank control were tested under the same conditions, and some experimental results in the test results are shown in Table 3. Table 3. Relative fluorescence readings for capped mRNAs
The assay was performed according to the method described in Example 21. All test compounds, N-7413, negative control and blank control were tested under the same conditions, and some experimental results in the test results are shown in Table 5. Table 5 Relative fluorescence readings for capped mRNAs

Assay [1] concerns the target streptavidin-coated magnetic beads (Streptomyces avidinii, UniProt P22629). In words: Biotin affinity assay (capture of capped mRNA on streptavidin beads and elution). The class given is binding. The following applies: capped mRNA bound to streptavidin beads, eluted at 80°C. The method, then:
• 1) S1-30nt-mRNA (mRNA capped with compound S1, with a length of 30 nt) was prepared and purified by LiCl; • 2) 500 µL of streptavidin-coated magnetic beads (2 mg) were taken, and the test tube was placed on a magnetic stand to collect the magnetic beads. The supernatant was removed and discarded, and the magnetic beads were washed; • 3) The magnetic beads were resuspended in 600 µL of TES buffer, and 5.5 µg of S1-30nt-mRNA from 1) was added to the magnetic bead resuspension and mixed well; the mixture was incubated at room temperature for one hour on a shaker or vortex mixer; • 4) The sample was placed on the magnetic stand for 5 min, and after the solution became clear, the supernatant was removed; • 5) While keeping the sample on the magnetic stand, the magnetic beads were rinsed three times with TES buffer; • 6) While keeping the sample on the magnetic stand, the magnetic beads were rinsed three times with distilled water; • 7) The deionized water was removed from the beads, and 60 µL of elution buffer heated to 80°C was added and mixed well. The mixture was heated to 80°C for 3 min in a constant-temperature metal bath, then placed on the magnetic stand for 3 min. The supernatant was aspirated as the elution product. • 8) Experimental results

Where [2] appears, read: reading of N-7413 = 1 (Table 5).
Where [3] appears, read: test compound 4 mM, 37°C 2 to 3 h (Table 2).
[4] abbreviates: 0.5 µg per well, reading of N-7413 = 1 (Table 3).

Sequence of T7 RNA Polymerase (P00573 whole entry): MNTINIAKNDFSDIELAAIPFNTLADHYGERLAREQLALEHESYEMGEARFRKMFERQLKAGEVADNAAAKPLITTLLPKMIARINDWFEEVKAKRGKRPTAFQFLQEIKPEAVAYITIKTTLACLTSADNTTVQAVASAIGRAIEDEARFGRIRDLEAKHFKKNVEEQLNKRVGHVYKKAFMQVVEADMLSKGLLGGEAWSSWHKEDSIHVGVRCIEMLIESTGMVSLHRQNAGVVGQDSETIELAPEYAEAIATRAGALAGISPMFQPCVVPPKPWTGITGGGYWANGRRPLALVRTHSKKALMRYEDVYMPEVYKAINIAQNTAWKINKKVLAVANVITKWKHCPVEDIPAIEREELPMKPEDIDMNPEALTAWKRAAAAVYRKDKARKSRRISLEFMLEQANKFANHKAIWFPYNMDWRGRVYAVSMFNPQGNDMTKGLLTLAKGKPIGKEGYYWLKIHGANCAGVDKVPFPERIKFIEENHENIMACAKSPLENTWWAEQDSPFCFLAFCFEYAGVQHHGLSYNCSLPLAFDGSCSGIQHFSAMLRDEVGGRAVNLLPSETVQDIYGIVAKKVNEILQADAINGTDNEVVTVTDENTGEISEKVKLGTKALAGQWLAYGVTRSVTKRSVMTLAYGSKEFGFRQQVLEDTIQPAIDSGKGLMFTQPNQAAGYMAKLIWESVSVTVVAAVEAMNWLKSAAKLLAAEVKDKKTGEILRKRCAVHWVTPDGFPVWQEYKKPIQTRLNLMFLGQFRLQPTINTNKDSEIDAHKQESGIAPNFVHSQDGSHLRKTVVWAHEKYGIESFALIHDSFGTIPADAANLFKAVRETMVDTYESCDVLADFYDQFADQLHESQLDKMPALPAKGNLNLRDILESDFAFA
Sequence of streptavidin-coated magnetic beads (P22629 25-183): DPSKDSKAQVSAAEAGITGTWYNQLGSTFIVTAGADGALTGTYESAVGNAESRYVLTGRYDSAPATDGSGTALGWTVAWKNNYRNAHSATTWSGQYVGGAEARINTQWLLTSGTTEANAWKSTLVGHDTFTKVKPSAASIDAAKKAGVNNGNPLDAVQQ

For `COCC1(F)C(COP(=O)(O)OP(O)(=S)OP(=O)(O)OCC2OC(n3cnc4c(N)ncnc43)C(OC)C2OP(=O)([O-])OCC2OC(n3cnc4c(=O)[nH]c(N)nc43)C(O)C2O)OC(n2c[n+](C)c3c(=O)[nH]c(N)nc32)C1O` (stereo not drawn) [Compound D97], on T7 RNA Polymerase (method of Example 20 (Table 4)), the Final product mass is reported as 91 µg. In the assay on HEK293T cells (setting [2]), the Relative fluorescence reading stood at 2.05.
For `CO[C@@H]1[C@H](OP(=O)([O-])OC[C@H]2O[C@@H](n3cnc4c(=O)[nH]c(N)nc43)[C@H](O)[C@@H]2O)[C@@H](COP(=O)(O)OP(=O)(O)OP(=O)(O)OC[C@H]2O[C@@H](n3c[n+](C)c4c(=O)[nH]c(N)nc43)[C@H](O)[C@@H]2OC)O[C@H]1n1cnc2c(N)ncnc21` [Compound N-7413, reference compound], the Final product mass at T7 RNA Polymerase (method of Example 20 (Table 4)) and on T7 RNA Polymerase (setting [3]) was 122 µg in each case. The Relative fluorescence reading in the assay on HEK293T cells (setting [4]) and in the assay with HEK293T cells (setting [2]) was 1.00 throughout.
Consider `CO[C@@H]1[C@H](OP(=O)(O)OC[C@H]2O[C@@H](n3cnc4c(=O)[nH]c(N)nc43)[C@H](O)[C@@H]2O)[C@@H](COP(=O)(O)OP(=O)(O)OP(=O)([O-])OC[C@H]2O[C@@H](n3c[n+](C)c4c(=O)[nH]c(N)nc43)[C@H](O)[C@@H]2CNC(=O)CCCC[C@@H]2SC[C@@H]3NC(=O)N[C@@H]32)O[C@H]1n1cnc2c(N)ncnc21` [Compound S1], for which the Final product mass at T7 RNA Polymerase (setting [3]) was 139 µg. Besides, in the assay on HEK293T cells (setting [4]), the Relative fluorescence reading worked out at 2.41.
At T7 RNA Polymerase (setting [3]), `CO[C@@H]1[C@H](OP(=O)(O)OC[C@H]2O[C@@H](n3cnc4c(=O)[nH]c(N)nc43)[C@H](O)[C@@H]2O)[C@@H](COP(=O)(O)OP(=O)(O)OP(=O)([O-])OC[C@H]2O[C@@H](n3c[n+](C)c4c(=O)[nH]c(N)nc43)[C@H](O)[C@@H]2CNC(=O)CCCCCNC(=O)CCCC[C@@H]2SC[C@@H]3NC(=O)N[C@@H]32)O[C@H]1n1cnc2c(N)ncnc21` [Compound S3] gave a Final product mass of 137 µg. The Relative fluorescence reading in the assay with HEK293T cells (setting [4]) came out at 2.56. Besides, the recovery rate entry in assay [1] is on record as “above 95%”.
On T7 RNA Polymerase (setting [3]), `CO[C@@H]1[C@H](OP(=O)([O-])OC[C@H]2O[C@@H](n3cnc4c(=O)[nH]c(N)nc43)[C@H](O)[C@@H]2O)[C@@H](COP(=O)(O)OP(=O)(O)OP(=O)(O)OC[C@H]2O[C@@H](n3c[n+](C)c4c(=O)[nH]c(N)nc43)[C@H](O)[C@@H]2Cn2cc(CNC(=O)CCCC[C@@H]3SC[C@@H]4NC(=O)N[C@@H]43)nn2)O[C@H]1n1cnc2c(N)ncnc21` [Compound S41] displayed a Final product mass of 126 µg. For the same compound, the Relative fluorescence reading with HEK293T cells (setting [4]) was determined as 1.81. The recovery rate entry in assay [1] is listed as “above 95%”.
`CNc1ccccc1C(=O)NC[C@H]1[C@@H](O)[C@H](n2c[n+](C)c3c(=O)[nH]c(N)nc32)O[C@@H]1COP(=O)([O-])OP(=O)(O)OP(=O)(O)OC[C@H]1O[C@@H](n2cnc3c(N)ncnc32)[C@H](OC)[C@@H]1OP(=O)(O)OC[C@H]1O[C@@H](n2cnc3c(=O)[nH]c(N)nc32)[C@H](O)[C@@H]1O` [Compound S165] returned a Final product mass at T7 RNA Polymerase (setting [3]) of 88 µg. This compound also came in with a Relative fluorescence reading in the assay on HEK293T cells (setting [4]) of 0.34.
The corresponding values for `CNc1ccccc1C(=O)NCCCCCC(=O)NC[C@H]1[C@@H](O)[C@H](n2c[n+](C)c3c(=O)[nH]c(N)nc32)O[C@@H]1COP(=O)([O-])OP(=O)(O)OP(=O)(O)OC[C@H]1O[C@@H](n2cnc3c(N)ncnc32)[C@H](OC)[C@@H]1OP(=O)(O)OC[C@H]1O[C@@H](n2cnc3c(=O)[nH]c(N)nc32)[C@H](O)[C@@H]1O` [Compound S166] are 91 µg and 0.87.
`CO[C@@H]1[C@H](OP(=O)([O-])OC[C@H]2O[C@@H](n3cnc4c(=O)[nH]c(N)nc43)[C@H](O)[C@@H]2O)[C@@H](COP(=O)(O)OP(=O)(O)OP(=O)(O)OC[C@H]2O[C@@H](n3c[n+](C)c4c(=O)[nH]c(N)nc43)[C@H](O)[C@@H]2NC(=O)CCCC[C@@H]2SC[C@@H]3NC(=O)N[C@@H]32)O[C@H]1n1cnc2c(N)ncnc21` [Compound S169] came in with a Final product mass on T7 RNA Polymerase (setting [3]) of 131 µg. Moreover, the Relative fluorescence reading with HEK293T cells (setting [4]) worked out at 1.35. In addition, in assay [1], the recovery rate result is recorded as “above 95%”.
For `CO[C@@H]1[C@H](OP(=O)([O-])OC[C@H]2O[C@@H](n3cnc4c(=O)[nH]c(N)nc43)[C@H](O)[C@@H]2O)[C@@H](COP(=O)(O)OP(=O)(O)OP(=O)(O)OC[C@H]2O[C@@H](n3c[n+](C)c4c(=O)[nH]c(N)nc43)[C@H](O)[C@@H]2CC(=O)NCCNC(=O)CCCC[C@@H]2SC[C@@H]3NC(=O)N[C@@H]32)O[C@H]1n1cnc2c(N)ncnc21` [Compound S170], in that order: 96 µg, 1.47 and “above 95%”.

Values taken from EP4653448A1, “COMPOUND FOR RNA CAPPING AND USE THEREOF” (Guangzhou Henovcom Bioscience Co. Ltd., priority 2023, dated 2024).
